How the values were obtained:
Assay in all cases: relative viability (nuclei count vs DMSO), 5 days (fraction); higher = more cells survive
Alisertib + Palbociclib = compound: COc1cc(Nc2ncc3c(n2)-c2ccc(Cl)cc2C(c2c(F)cccc2OC)=NC3)ccc1C(=O)O [Alisertib] + CC(=O)c1c(C)c2cnc(Nc3ccc(N4CCNCC4)cn3)nc2n(C2CCCC2)c1=O [Palbociclib] (partner 0.5 µM)
How it was run: (§1)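 After 5 days of treatment, lung cancer cells in 1536-well plates were fixed and stained in a single step (final 0.05% Triton X-100, 1% formaldehyde, 1 ug/ml Hoechst) and their nuclei counted on 4× images. Treatment had been applied by pin tool the day after seeding as one drug alone or as a fixed anchor-drug dose with five library-drug doses (not always all listed) in √10 steps. Relative viability is the nuclei count of treated wells divided by that of vehicle wells, and values are medians of duplicate plates.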

Alisertib + Dasatinib = compound: COc1cc(Nc2ncc3c(n2)-c2ccc(Cl)cc2C(c2c(F)cccc2OC)=NC3)ccc1C(=O)O [Alisertib] + Cc1nc(Nc2ncc(C(=O)Nc3c(C)cccc3Cl)s2)cc(N2CCN(CCO)CC2)n1 [Dasatinib] (partner 0.075 µM)
How it was run: as §1

Alisertib + Luminespib = compound: COc1cc(Nc2ncc3c(n2)-c2ccc(Cl)cc2C(c2c(F)cccc2OC)=NC3)ccc1C(=O)O [Alisertib] + CCNC(=O)c1noc(-c2cc(C(C)C)c(O)cc2O)c1-c1ccc(CN2CCOCC2)cc1 [Luminespib] (partner 0.01 µM)
How it was run: as §1

Alisertib + Bortezomib = compound: COc1cc(Nc2ncc3c(n2)-c2ccc(Cl)cc2C(c2c(F)cccc2OC)=NC3)ccc1C(=O)O [Alisertib] + CC(C)C[C@H](NC(=O)[C@H](Cc1ccccc1)NC(=O)c1cnccn1)B(O)O [Bortezomib] (partner 0.002 µM)
How it was run: as §1

| Cell Line | relative viability (Alisertib + Palbociclib; first compound 0.005 µM) | relative viability (Alisertib + Palbociclib; first compound 0.01581 µM) | relative viability (Alisertib + Palbociclib; first compound 0.05 µM) | relative viability (Alisertib + Palbociclib; first compound 0.1581 µM) | relative viability (Alisertib + Palbociclib; first compound 0.5 µM) | relative viability (Alisertib + Dasatinib; first compound 0.005 µM) | relative viability (Alisertib + Dasatinib; first compound 0.01581 µM) | relative viability (Alisertib + Dasatinib; first compound 0.05 µM) | relative viability (Alisertib + Dasatinib; first compound 0.1581 µM) | relative viability (Alisertib + Dasatinib; first compound 0.5 µM) | relative viability (Alisertib + Luminespib; first compound 0.005 µM) | relative viability (Alisertib + Luminespib; first compound 0.01581 µM) | relative viability (Alisertib + Luminespib; first compound 0.05 µM) | relative viability (Alisertib + Luminespib; first compound 0.1581 µM) | relative viability (Alisertib + Luminespib; first compound 0.5 µM) | relative viability (Alisertib + Bortezomib; first compound 0.005 µM) | relative viability (Alisertib + Bortezomib; first compound 0.01581 µM) | relative viability (Alisertib + Bortezomib; first compound 0.05 µM) | relative viability (Alisertib + Bortezomib; first compound 0.1581 µM) | relative viability (Alisertib + Bortezomib; first compound 0.5 µM) |
| --- | --- | --- | --- | --- | --- | --- | --- | --- | --- | --- | --- | --- | --- | --- | --- | --- | --- | --- | --- | --- |
| COR-L 105 | 0.368 | 0.417 | 0.356 | 0.33 | 0.37 | 0.291 | 0.296 | 0.293 | 0.194 | 0.177 | 0.773 | 0.685 | 0.56 | 0.382 | 0.252 | 0.757 | 0.875 | 0.447 | 0.27 | 0.218 |
| LK-2 | 0.684 | 0.67 | 0.403 | 0.178 | 0.148 | 0.353 | 0.267 | 0.212 | 0.192 | 0.153 | 0.19 | 0.165 | 0.184 | 0.18 | 0.187 |  |  |  |  |  |
| NCI-H838 | 0.189 | 0.291 | 0.177 | 0.154 | 0.132 | 0.289 | 0.298 | 0.263 | 0.239 | 0.189 | 0.386 | 0.343 | 0.252 | 0.135 | 0.133 | 0.774 | 0.655 | 0.422 | 0.25 | 0.158 |
| SK-LU-1 | 0.395 | 0.364 | 0.22 | 0.242 | 0.236 | 0.192 | 0.157 | 0.116 | 0.125 | 0.104 | 0.178 | 0.18 | 0.159 | 0.184 | 0.178 | 0.963 | 0.862 | 0.503 | 0.403 | 0.253 |
| NCI-H2023 | 0.349 | 0.288 | 0.174 | 0.125 | 0.0948 | 0.561 | 0.492 | 0.35 | 0.167 | 0.0881 | 0.807 | 0.671 | 0.321 | 0.127 | 0.0912 | 0.904 | 0.824 | 0.539 | 0.199 | 0.0763 |
| NCI-H322M | 0.473 | 0.475 | 0.477 | 0.413 | 0.417 | 0.233 | 0.23 | 0.26 | 0.184 | 0.206 | 0.84 | 0.671 | 0.475 | 0.37 | 0.452 | 1.15 | 1.11 | 1.25 | 0.471 | 0.46 |
| NCI-H1666 | 0.609 | 0.585 | 0.595 | 0.551 | 0.489 | 0.693 | 0.695 | 0.527 | 0.336 | 0.323 | 0.879 | 0.801 | 0.639 | 0.471 | 0.379 | 0.694 | 0.597 | 0.505 | 0.317 | 0.267 |
| NCI-H1648 |  | 0.265 | 0.22 | 0.258 | 0.239 |  |  |  |  |  |  |  |  |  |  |  |  |  |  |  |
| NCI-H2087 | 0.226 | 0.271 | 0.154 | 0.11 | 0.109 | 0.776 | 0.628 | 0.137 | 0.113 | 0.123 | 0.191 | 0.136 | 0.155 | 0.16 | 0.115 | 0.88 | 0.702 | 0.186 | 0.172 | 0.199 |
| LU99A | 0.386 | 0.418 | 0.189 | 0.185 | 0.174 | 0.502 | 0.513 | 0.323 | 0.183 | 0.17 | 0.245 | 0.3 | 0.219 | 0.201 | 0.177 | 1.15 | 0.872 | 0.396 | 0.24 | 0.182 |
| HCC-366 | 0.361 | 0.322 | 0.0243 | 0.0284 | 0.039 | 0.674 | 0.353 | 0.0282 | 0.0222 | 0.0468 |  |  |  |  |  | 1.04 | 0.345 | 0.0201 | 0.0154 | 0.0255 |
| EKVX | 0.386 | 0.431 | 0.27 | 0.183 | 0.176 | 0.541 | 0.47 | 0.243 | 0.244 | 0.229 | 0.711 | 0.74 | 0.356 | 0.168 | 0.169 | 0.967 | 0.8 | 0.391 | 0.185 | 0.169 |
| NCI-H522 | 0.877 | 1.14 | 0.975 | 0.76 | 0.519 | 0.812 | 0.91 | 0.67 | 0.323 | 0.434 | 1.2 | 1 | 0.493 | 0.331 | 0.426 |  |  |  |  |  |
| NCI-H1755 | 0.408 | 0.432 | 0.445 | 0.428 | 0.384 | 0.382 | 0.467 | 0.356 | 0.221 | 0.0862 | 0.463 | 0.409 | 0.255 | 0.189 | 0.199 | 0.891 | 0.886 | 0.877 | 0.389 | 0.318 |
| NCI-H650 | 0.326 | 0.327 | 0.191 | 0.159 | 0.163 | 0.429 | 0.479 | 0.21 | 0.194 | 0.169 | 0.685 | 0.579 | 0.239 | 0.126 | 0.198 | 0.568 | 0.619 | 0.25 | 0.265 | 0.22 |
| LC-2-ad | 0.413 | 0.459 | 0.282 | 0.276 | 0.21 | 0.315 | 0.33 | 0.263 | 0.202 | 0.133 | 0.892 | 0.435 | 0.39 | 0.392 | 0.32 | 0.907 | 0.369 | 0.264 | 0.144 | 0.112 |
| NCI-H1793 | 0.332 | 0.3 | 0.273 | 0.215 | 0.234 | 0.397 | 0.242 | 0.186 | 0.11 | 0.116 | 0.171 | 0.147 | 0.156 | 0.127 | 0.136 |  |  |  |  |  |
| HCC-827 | 0.459 | 0.537 | 0.379 | 0.27 | 0.207 | 0.279 | 0.409 | 0.246 | 0.194 | 0.236 | 0.48 | 0.598 | 0.204 | 0.209 | 0.234 | 1.01 | 1.06 | 0.848 | 0.402 | 0.401 |

From the supplement of paper PMC10307832
